Columns and labels:
[1] = tested on: Ptpn6, Fcer1g, Tyrobp, Slamf9, Clec4a3 mRNA; test: RT-qPCR of immune system regulatory genes (tumor necrosis factor superfamily cytokine production) in ovaries; type: in vivo, mouse; conditions: old experimental group treated, FIG. 3B
Experimental: In this experiment, a change in the expression of immune system regulatory genes (genes involved with tumor necrosis factor superfamily cytokine production) was quantitatively evaluated using real-time quantitative PCR (RT-qPCR) according to the treatment of aged models with Example Compound.
RT-qPCR was performed on each ovary using the TRIzol protocol, total RNA was extracted from a lysate using the RNeasy mini kit (Qiagen Ltd.), and the extracted total RNA was reverse-transcribed using a Superscript kit (Invitrogen) containing a random hexamer to synthesize cDNA.
Gene expression levels were confirmed using primers and the SsoAdvanced Universal SYBR Green Supermix (Bio-Rad. US) in the CFX96 Touch Real-Time PCR detection system (Bio Rad, US).
For each gene tested, a comparative threshold cycle (CT) method that normalizes the accumulated PCR product to the reference gene beta-actin was used, and repeated three times.
The PCR product was loaded on a 2% agarose gel and stained with Safeview™ (Applied Biological Materials. Richmond, Canada), and the gel was visualized under UV light using a gel documentation system (WSE-6100 LuminoGraph; ATTO, Tokyo, Japan), and the product bands were analyzed by the analysis of intensity ratios using ImageJ software.

[2] = tested on: mouse ovaries stimulated with PMSG; test: Histology (hematoxylin and eosin) of ovaries after PMSG stimulation in vivo: number of ovarian follicles; conditions: treated ovaries compared to the ovaries of the control; after hormonal stimulation; FIG. 1A
Experimental: In this experiment, as a control, young mice (7 to 9 weeks old, n=15), and as an experimental group, old mice (55 to 60 weeks old, n=30) were prepared. In the drawing, the experimental results of the young mice are indicated as ‘Young,’ and the experimental results of the old mice are indicated as ‘Old.’
(§1) For in vivo hormone stimulation, the old mice were treated with the Example compound, and 12 hours later, 75 IU pregnant mare serum gonadotropin (PMSG: RP1782725000; BioVendor, Czech Republic) was injected into the mice. A control is a group administered only 751U PMSG. Female mice were superovulated by injecting hormones intraperitoneally at intervals of 48 hours. The administered hormones were PMSG (7.5 IU) and human chorionic gonadotropin (hCG: 668900221; LG Chem. Seoul, Korea: 7.5 IU). After secondary hormone treatment, female mice were mated with male mice (2:1 or 1:1). Modified pronuclear cells (2PNs) were obtained 24 hours after hCG injection.
In Experimental Example 1, the effect of treatment with Example Compound on mouse ovaries stimulated with PMSG in vivo was evaluated. Light microscopy imaging was performed on the ovaries of young mice, and old mice treated and not treated with Example Compound.
Each sample was fixed with 4% paraformaldehyde at room temperature for 30 minutes, and the fixed tissue was washed with PBS and embedded in paraffin with a thickness of 5 μm. […]

[3] = tested on: longevity-related genes, steroidogenesis-related genes, primordial follicle factors, ovarian function factors; test: RT-PCR of ovarian function-related genes in ovaries of old mice; type: in vivo, mouse
Excerpt: The expression of ovarian function-related genes in the ovaries of old mice treated with Example Compound was confirmed by reverse transcription-polymerase chain reaction (RT-PCR).
mRNA was extracted from oocytes using a TRIzol (TRIzol RNA, 15596026, Thermo Fisher) solution and subjected to RT-PCR. The PCR product was stained with SafeView™ (Applied Biological Materials, Richmond, Canada) and loaded on a 2% agarose gel. Additionally, the gel was visualized under UV light using a gel documentation system (WSE-6100 LuminoGraph; ATTO, Tokyo, Japan). The intensity ratios of the product bands were analyzed using the ImageJ software program.
The expression of primordial follicle factors, such as Nanog, Oct3/4, and p63, and ovarian function factors, such as AMH and BMP15, in the ovaries of the mice treated with Example Compound were analyzed by RT-PCR.
In FIGS. 4A and 4B, “Young” indicates a young mouse, “Old” indicates an old mouse, and “Old+Compound 1” indicates an old mouse treated with Example Compound.
In FIG. 4A, the upper left box indicates longevity-related genes, the lower left box indicates steroidogenesis-related genes, the upper right box indicates primordial follicle factors, and the lower right box indicates ovarian function factors.

old ovaries (GV oocytes) = test: Number of GV oocytes collected from ovaries after superovulation; type: in vivo, mouse; conditions: old ovaries treated vs old ovaries not treated; FIGS. 1B and 1C
Experimental: Female mice (young mice: 7-8 weeks old; old mice: 40 weeks or older) were superovulated by intraperitoneally injecting pregnant mare serum gonadotropin (PMSG: G4527, Sigma Aldrich: 7.5 IU). Germinal vesicle (GV) oocytes were collected from the ovaries 48 hours after PMSG injection. For zygotes, female mice were injected with PMSG, and 48 hours later, injected with hCG, and then placed overnight with BDF1 stud male mice, which were approximately 10 to 12 weeks old. The next day, plugs of the female mice were examined, and zygotes and two-cell embryos were collected from the oviducts 18 to 20 hours and 36 hours after hCG injection, respectively.
After inducing superovulation, the numbers of GV oocytes in the ovaries of the old mice and young mice treated with Example Compound were evaluated.
The measurement of the number of GV oocytes was performed by collecting mouse eggs from each group (the number of eggs of young mice: 15: the number of eggs of old mice: 30; and the number of eggs of old mice treated with Example Compound: 30), physically chopping the eggs to collect ovarian follicles, and isolating GV oocytes in the ovarian follicles to count the number of cells.

[4] = tested on: fertilized 2PN embryos of old mice; test: Pre-implantation development of fertilized 2PN embryos from treated old mice; type: in vivo, mouse
Experimental: as §1
In Experimental Example 2, the effect of fertilized 2PN embryo development on the ovaries of the old mice treated with Example Compound was evaluated.
27 pronuclear cells of the old mice (n=15) treated with Example Compound and 62 pronuclear cells of the old mice (n=15) not treated with Example Compound as a control were cultured. Afterward, the number of cells at each of 2-cell, 4-cell, 8-cell, morula, early blastocyst, and late blastocyst stages was measured using a microscope, and expressed as a percentage.

ovaries of old mice = test: Ovarian gene expression pattern by next generation sequencing (mRNA sequencing); type: in vivo, mouse; conditions: NGS; genes increased in the old group
Experimental: A major change in gene expression caused by treatment with Example Compound was confirmed through next generation sequencing (NGS).
mRNA sequencing was performed according to References. RNA was extracted using a TRIzol (15596026. Thermo Fisher) solution. Sequencing libraries were prepared according to the manufacturer's instructions using the TruSeq Stranded mRNA LT Sample Prep Kit (Illumina). Paired end 101 bp sequencing was performed using the Illumina platform (NovaSeq 6000, Illumina). The results of two experiments were obtained for each group.
According to the criteria (1st trimming, base quality<3, window size=4, mean quality=15; 2nd trimming: min length=36 bp), paired end read data was trimmed using Trimmomatic (Bolger et al., 2014). Using the HISAT2 program (Kim et al., 2019; Nat Biotechnol 37, 907-915, 2019), trimmed reads were mapped to the UCSC genome database. Also, the mapping results were quantified using StringTie (Pertea et al., 2015; Nat Biotechnol. 2015 March; 33(3): 290-295) and gene/transcript-based annotations (NCBI Annotation Release 108).
Differential expression gene analysis was performed using DESeq2 according to the criteria (baseMean counts>14, false discover rate (FDR)<0.1, and log 2FoldChange>1). […]

[5] = old mice treated vs old mice not treated
[6] = old mice treated, 27 pronuclear cells cultured

## O=S1(=O)CCN(Cc2cc(NC3CCOCC3)c3[nH]c(-c4ccccc4)cc3c2)CC1 [Example Compound, 5-[(1,1-dioxido-4-thiomorpholinyl)methyl]-2-phenyl-N-(tetrahydro-2H-pyran-4-yl)-1H-indol-7-amine]
[1]
  mRNA expression levels of Ptpn6, Fcerlg, Tyrobp, Slamf9, and Clec4a3: lowered to levels similar to those of the young control
[2]
  total number of ovarian follicles, including preantral follicles and antral follicles: significantly higher
[3]; [5]
  expression levels of SOD2 and SIRT1 (longevity-related genes): higher
  expression levels of steroid production-related genes Edn2, Tbxa2r, Oxtr, and Adra1d: significantly increased
[3]; treated vs control not treated, FIGS. 4A and 4B
  mRNA expression of Oct3/4, Nanog, p63, Lhcgr, AMH, GDF9, BMP15, and Kid: significantly higher
Old ovaries (GV oocytes)
  total number of oocytes collected at the GV stage: significantly higher
[4]; at the morula, early blastocyst, and late blastocyst stages, old mice, FIG. 2
  embryo development rate higher than that of the control embryo: 20%
[4]; [6]
  early blastocyst rate: 51.85%
  embryo development rate at the morula stage: 55.56%
  late blastocyst rate: 51.85%
Ovaries of old mice
  expression of Fcerlg, Slamf9, Clec4a3, Ptpn6, Tyrobp, Adipoq, Bcl3, Trem2, and Sash3 (TNF superfamily cytokine production DEGs): down-regulated

— patent US20250082646A1, “OVARIAN ANTI-AGING PHARMACEUTICAL COMPOSITION AND USE THEREOF” (priority 2022, published 2025)
